Assay results as given in patent US5853695A, “Method for palliation of pain in human bone cancer using therapeutic tin-117m compositions” (Brookhaven Science Associates LLC, priority 1996, dated 1998).
Entries after “also recorded” stand apart in the source; their conditions may differ.

What was measured:
bone pain = experiment: Palliation of bone pain in human subjects (clinical study, patient pain records); assay type: in vivo; design: key to Result (pain relief): -: No relief; +: Partial Relief; ++: Good Relief
Method: (§1) Fourteen patients were enrolled in a controlled clinical study, including 9 males and 5 females. The patients were administered an Sn-117m chelate complex-containing composition (described above in Example 3) sufficient to provide between 33 and 156 μCi/kg body weight. The protocol was approved by an institutional review board and the United States Food and Drug Administration (FDA). All subjects gave informed consent.
(§2) Prior to initiation of therapy a Tc-99m MDP bone imaging study was obtained. Complete blood counts, including a differential and platelet count, electrolytes, and blood chemistries were obtained. No radiotherapy or chemotherapy had been administered to the patients in the prior month. Hormonal therapy was continued if the patient had been on hormonal therapy for more than three months without improvement in their clinical status.
(§3) Sn-117m (Sn^4+) DTPA was administered through an inlying infusion line over a period of 5-10 minutes. […] A complete urine collection was obtained over 4 days and a blood specimen obtained on the fourth day. This enabled an estimate of bone uptake. Two imaging studies to monitor the Sn-117m distribution were obtained in the first week and repeat chemistries were obtained at one week. Complete blood counts were obtained weekly for at least two months and less frequently thereafter. A repeat Tc-99m MDP bone imaging study was performed at two months.
Patients maintained a record of pain levels and sites daily for two weeks and then twice a week for the next 6 weeks.

bone [1] = experiment: Bone uptake estimated from 4-day urine collection and blood specimen (% Total in Bone); assay type: in vivo, human; settings: i.v. infusion
Method: as §1, §3

bone [2] = experiment: External gamma camera / SPECT imaging of distribution in patients; assay type: in vivo, human
Method: Also note that the dose of the Sn-117m compound is within the range of dosages found to palliate pain according to the method of the invention.
The right panel depicts a three-dimensional reprojection image from SPECT (Single Photon Emission Computed Tomography) of a portion of the skeleton in the same patient.
as §3

[3] = tested on: white blood cells and platelets; experiment: Hemopoietic toxicity by complete blood counts (white blood cells, platelets); assay type: in vivo, human
Method: as §2, §3
As a result, a dosage of the Sn-117m chelate within the range found to be effective for consistent pain reduction can also be expected to be non-toxic to the patient.

## Sn-117m (Sn^4+) diethylenetriaminepentaacetic acid [Sn-117m (Sn^4+) DTPA]
Bone pain; Patient 4, prostate cancer, 61 kg, single 4.70 mCi (0.077 mCi/kg)
  Result (pain relief): -
Bone pain; Patient 6, unknown primary cancer, 108 kg, single 8.41 mCi (0.078 mCi/kg)
  Result (pain relief): +
Bone pain; Patient 7, prostate cancer, 59 kg, single 4.95 mCi (0.084 mCi/kg)
  Result (pain relief): ++
Bone pain; Patient 8, lung cancer, 61 kg, single 8.95 mCi (0.146 mCi/kg)
  Result (pain relief): ++
Bone pain; Patient 9, breast cancer, 59 kg, single 8.41 mCi (0.142 mCi/kg)
  Result (pain relief): ++
Bone pain; Patient 10, breast cancer, 59 kg, single 8.00 mCi (0.135 mCi/kg)
  Result (pain relief): ++
Bone pain; Patient 11, prostate cancer, 67 kg, single 10.46 mCi (0.156 mCi/kg)
  Result (pain relief): +
Bone pain; Patient 12, prostate cancer, 93 kg, single 14.46 mCi (0.156 mCi/kg)
  Result (pain relief): ++
Bone pain; Patient 13, prostate cancer, 118 kg, single 15.49 mCi (0.131 mCi/kg)
  Result (pain relief): ++
Bone pain; Patient 14, breast cancer, 50 kg, single 7.54 mCi (0.151 mCi/kg)
  Result (pain relief): +
Bone pain; patients given a lower dose
  response to treatment, lower dose: variable response to the treatment, in one case indicating that no relief was had
Bone pain; seven patients who received more than about 9 mCi/70 kg (~129 μCi/kg), listed as Sn-117m chelates
  relief of pain, higher dose: all experienced relief of pain; also recorded: five experienced excellent relief; also recorded: two experienced partial relief
Bone pain; single administrations, 33 to 156 μCi/kg, fourteen patients
  relief or palliation of pain, overall: dose-dependent relief or palliation of pain
Bone [1]; Patient 9, breast cancer, 8.41 mCi (0.142 mCi/kg)
  % Total in Bone: 72.1%
Bone [1]; Patient 10, breast cancer, 8.00 mCi (0.135 mCi/kg)
  % Total in Bone: 59.2%
Bone [1]; Patient 11, prostate cancer, 10.46 mCi (0.156 mCi/kg)
  % Total in Bone: 58.0%
Bone [1]; Patient 12, prostate cancer, 14.46 mCi (0.156 mCi/kg)
  % Total in Bone: 34.1%
Bone [1]; Patient 13, prostate cancer, 15.49 mCi (0.131 mCi/kg)
  % Total in Bone: 71.3%
Bone [1]; Patient 14, breast cancer, 7.54 mCi (0.151 mCi/kg)
  % Total in Bone: 69.2%
Bone [2]; cancer patient with bone metastases, 4 days after 5 mCi, FIG. 2
  distribution in bone, whole body and SPECT images: patchy bright spots denote spread of cancer to bone
Bone [2]; patient with prostate cancer spread to bone, 4 days after 10 mCi, FIG. 1
  distribution in bone by gamma camera imaging compared with technetium-99m-MDP: similarity of distribution of the two nuclides
[3]; Patient 11, over three months following single administration (10.4 mCi)
  white blood cell (WBC) count or platelet count: no decrease
[3]; all patients in the study
  hemopoietic toxicity: no patients in the study showed evidence of hemopoietic toxicity
